According to US6133322A, “Quinone derivatives for treating or preventing diseases associated with iron overload” (Institut National de la Sante et de la Recherche Medicale …, priority 1998, dated 2000):
Blank lines part the entries; values can stand above or below the molecule they belong to.

Columns and labels:
[1] = tested on: membrane lipids; assay: Iron-induced peroxidation of membrane lipids (cis-parinaric acid fluorescent probe) in human heart homogenates; assay type: biochemical; conditions: for iron-induced damages of the membrane components (in words): in vitro system, summary; for peroxidation of membrane lipids (in words): FIG. 1A, iron form added to heart homogenate
Experimental: (§1) Human heart homogenates were used as an in vitro model to mimic the action of iron on mitochondrial ISPs and to test the potentially protective effect of various substances.
(§2) These homogenates were prepared under low iron-chelating conditions using the procedures described in Rustin P. et al., Biochemical and molecular investigations in respiratory chain deficiencies, Clin. Chim. Acta., 228, 35-51 (1994). Briefly, homogenate from frozen human heart was obtained surgically and prepared at ice-melting temperature in a 0.1 M Tris-HCI buffer (pH 7.3) by five strokes of hand-driven ground glass potter using the procedures described in Sanchez-Casis et al., Pathology of the heart in Friedreich's ataxia: review of the literature and report of one case, Can. J. Neurol. Sci., 3, 349-354 (1977). After filtering through a 90 μm nylon net, homogenate was sampled and frozen at -80° C. for enzyme studies.
(§3) The endogenous antioxidant defenses of heart mitochondria were neutralized by simple dilution, and free access of iron to its specific targets was achieved by freeze-thaw disrupting mitochondrial membranes.
Lipoperoxidation, a marker of non-specific peroxidative damages caused to membrane components, was monitored in the presence of either reduced or oxidized iron. Cis-parinaric acid (c-PN) was used as a fluorescent probe for lipoperoxidation (15,16). Measurements were performed in a 37° C. thermostated quartz cell, magnetically stirred, and containing 2 ml 0.1 M Tris-HCI buffer (pH 7.3) using a LS540B Spectrofluorimeter (Perkin-Elmer, England). Excitation: 318 nm; 5 nm band-pass Emission: 410 nm; 5 nm band-pass.
(§4) Lipids peroxidation, complex II activity, and aconitase activity were monitored according to the methods of example 1 above.

[2] = tested on: aconitases; assay: Aconitase activity (aconitate accumulation at 240 nm in the presence of citrate) in human heart homogenate; assay type: biochemical; conditions: for Iron-induced damages to: Aconitases: 5 nM Fe^2+ + 2 nM EDTA + 6 U of the one enzyme
Experimental: as §1, §2, §3
(§5) The activities of two enzymes specifically targeted in FRDA, namely membrane-bound respiratory chain complex II and soluble (mitochondrial plus cytosolic) aconitases, were monitored under either low or high iron chelating conditions, in the presence of either reduced or oxidized iron. Complex II activity was measured on freeze-thaw heart homogenate as the dichlorophenolindophenol quinone reductase (DCPIP) (14). Aconitase activity in heart homogenate, corresponding to the combined mitochondrial and cytosolic enzyme activities, was measured by following the aconitate accumulation at 240 nm in the presence of citrate (6). All measurements were performed using a DW2000 Aminco Spectrophotometer (SLM, USA) in a 37° C. thermostated quartz cell, magnetically stirred, and containing 2 ml 0.1 M Tris-HCI buffer (pH 7.3).
as §4
Aconitase was assayed after additional 3 min incubation with 250 μM desferrixamine. Trace b: Aconitase activity measured after 6 min incubation in Tris-HCI buffer containing 250 μM desferrioxamine in the absence of Fe^2+.

[3] = tested on: complex II; assay: Complex II activity (succinate quinone DCPIP reductase) in freeze-thaw human heart homogenate; assay type: biochemical; conditions: for protection of complex II from iron induced damages (in words): succinate alone or 60 μM oxidized idebenone alone, FIG. 2C traces a, b
Experimental: as §1, §2, §3, §5, §4

[4] = tested on: FRDA patients; assay: Idebenone administration in FRDA patients: cardiac hypertrophy and cerebellar ataxia; assay type: in vivo, human
Experimental: Based on the previous in vitro data and owing to the innocuousness of the drug, five children ranging in age from 71/2 to 14 years and two young adults, all diagnosed with FDRA, were given idebenone orally (5 mg/kg/day).
The results observed after a course of treatment ranging from about 4 to about 9 months of administration at this dosage, are shown in FIG. 3:
A) Follow up of heart ultrasound parameters in patients 1, 6 and 7. LV: left ventricle. Note the decreased septal and left ventricle posterior wall thickness;
B) changes in cerebellar ataxia noted by parents and uninformed teachers. ®: Unchanged; : decrease; 0: No initial involvement.

[5] = 5 nM Fe^2+ + 50 μM quinone, no succinate
[6] = 5 nM Fe^2+ + 10 mM succinate + 50 μM quinone
[7] = quinone reduced in situ by the respiratory chain (succinate)
[8] = idebenone orally 5 mg/kg/day, about 4 to about 9 months
[9] = noted by the parents and uninformed teachers

Molecule: COC1=C(OC)C(=O)C(CC=C(C)CCC=C(C)CCC=C(C)CCC=C(C)C)=C(C)C1=O [CoQ4]
- Iron-induced damages to: Lipids [1, 5]: -74 ± 3%
- Iron-induced damages to: Lipids [1, 6]: -1 ± 1%

- decrease of aconitase activity ([2]; 3 min with 5 nM Fe^2+ + 8 μM CoQ10 without succinate, then 3 min 250 μM desferrioxamine, FIG. 2D trace c): 77%
Molecule: COC1=C(OC)C(=O)C(CC=C(C)CCC=C(C)CCC=C(C)CCC=C(C)CCC=C(C)CCC=C(C)CCC=C(C)CCC=C(C)CCC=C(C)CCC=C(C)C)=C(C)C1=O [CoQ10]
- Iron-induced damages to: Lipids [1, 5]: -66 ± 2%
- Iron-induced damages to: Lipids [1, 6]: -1 ± 0.4%
- protection against iron-induced lipoperoxidation (in words) ([1]; 8 μM CoQ10 reduced in situ by 3 min incubation with 10 mM succinate, FIG. 2B trace b): full protection
- protection against iron-induced lipoperoxidation (in words) ([1]; 8 μM oxidized CoQ10, absence of succinate, FIG. 2B trace a): did not protect from iron-induced lipoperoxidation

Molecule: O=C(O)CN(CCN(CC(=O)O)CC(=O)O)CC(=O)O [EDTA]
- Iron-induced damages to: Lipids ([1]; 5 nM Fe^2+ + 2 nM EDTA): -2 ± 1%
- protection of complex II activity (in words) ([3]; 1 nM EDTA added to the iron-supplemented (5 nM reduced iron) medium, FIG. 1B trace b): fully protected

Molecule: O=C1O[C@H]([C@@H](O)CO)C(O)=C1O [ascorbate]
- iron-induced damages of the membrane components (in words) [1]: enhancing these damages

- decrease in aconitase activity (in words) ([2]; 200 μM desferrioxamine alone, 6 min pre-incubation, no Fe^2+, FIG. 2D trace b): no decrease in enzyme activity
- loss of aconitase activity ([2]; 250 μM desferrioxamine + 5 nM reduced iron, FIG. 1C trace d): 80%
- inhibition of aconitase activity (in words) ([2]; desferrioxamine in the absence of iron, FIG. 1C trace c): No inhibition of aconitase activity
Molecule: CC(=O)N(O)CCCCCNC(=O)CCC(=O)N(O)CCCCCNC(=O)CCC(=O)N(O)CCCCCN [desferrioxamine]
- Iron-induced damages to: Lipids ([1]; 5 nM Fe^2+ + 120 μM desferrioxamine): 0 ± 1%

Molecule: N[C@@H](CCC(=O)N[C@@H](CS)C(=O)NCC(=O)O)C(=O)O [glutathione]
- iron-induced damages of the membrane components (in words) [1]: enhancing these damages

- protection of complex II activity (in words) ([3]; succinate and 60 μM idebenone added simultaneously (20% of idebenone reduced), FIG. 2C trace c): full protection
Molecule: COC1=C(OC)C(=O)C(CCCCCCCCCCO)=C(C)C1=O [idebenone, 6-(10-hydroxydecyl)-2,3-dimethoxy-5-methyl-1,4-benzoquinone]
- Iron-induced damages to: Lipids ([1]; 5 nM Fe^2+ + 60 μM idebenone, no succinate): -63 ± 4%
- Iron-induced damages to: Lipids ([1]; 5 nM Fe^2+ + 10 mM succinate + 60 μM idebenone): -1 ± 0.4%
- protection against iron-induced lipoperoxidation (in words) ([1]; 60 μM oxidized idebenone, 3 min, no succinate, FIG. 2A trace a): No protection
- protection against iron-induced lipoperoxidation (in words) ([1]; idebenone reduced in situ by succinate (about 2 μM reduced), FIG. 2A trace b): significant protection
- protection against iron-induced lipoperoxidation (in words) ([1]; longer incubation with succinate (12 μM reduced; 20% of total idebenone), FIG. 2A trace c): enhanced
- protection of membrane lipids against iron injury (in words) [1, 7]: efficiently protected
- protection of membrane-anchored complex II against iron injury (in words) [3, 7]: efficiently protected
- protection of complex II from iron induced damages (in words) [3]: did not protect complex II
- prevention of the loss of aconitase activity induced by water-soluble chelators in the presence of reduced iron (in words) ([2]; Table 2): neither succinate nor idebenone nor succinate+idebenone prevents the loss of aconitase activity
- myocardial hypertrophy (in words) ([4]; 4 to 9 month regime, five FRDA patients): significant decrease
- deep tendon reflexes (in words) ([4]; after a 9 month course): have not reappeared
- improvement of asynergia/dysmetria (finger-nose test) (patients improved/total) [4, 8]: 3/5
- improvement of delicate movements (handwriting) (patients improved/total) [4, 8]: 4/5
- improvement of gait ataxia (patients improved/total) [4, 8]: 2/5
- improvement of muscle strength (patients improved/total) [4, 8]: 5/5
- general condition (in words) [4, 9]: improvement
- hand clumsiness (in words) [4, 9]: decrease
- decrease of left ventricle mass index ([4]; ultrasound, three patients): -21 to -32%
- reduction of left ventricle wall ([4]; ultrasound, three patients): -8 to -20%
- reduction of septal thickness ([4]; ultrasound, three patients): -31 to -36%

Molecule: O=C(O)CCC(=O)O [succinate]
- Iron-induced damages to: Lipids ([1]; 5 nM Fe^2+ + 10 mM succinate): -58 ± 3%
- protection of membrane lipids against iron-induced peroxidation (in words) ([1]; succinate alone): failed to protect
- protection of complex II from iron induced damages (in words) [3]: did not protect complex II

Molecule: SOD: superoxide dismutase, water-soluble antioxidant enzyme
- iron-induced damages of the membrane components (in words) [1]: unable to prevent
- Iron-induced damages to: Aconitases [2]: -75 ± 1%

Molecule: ferric chloride [Fe^3+]
- peroxidation of membrane lipids (in words) [1]: no damage was observed
- peroxidation of membrane lipids (in words) ([1]; listed as oxidized iron): did not significantly after membrane lipids

Molecule: ferrous chloride [Fe^2+]
- peroxidation of membrane lipids (in words) ([1]; listed as Reduced iron): triggered an immediate peroxidation of the membrane lipid
- peroxidation of membrane lipids (in words) ([1]; listed as reduced iron): rapid lipoperoxidation
- activity of complex II (in words) ([3]; 1 min incubation with 5 nM reduced iron, FIG. 1B trace c): strongly affected
- aconitase activity (in words) ([2]; 10 min incubation with 5 nM reduced iron, FIG. 1C trace b): not affected

B1: catalase: water-soluble antioxidant enzyme (protein, UniProt P04040 2-527, looked up)
Catalase: ADSRDPASDQMQHWKEQRAAQKADVLTTGAGNPVGDKLNVITVGPRGPLLVQDVVFTDEMAHFDRERIPERVVHAKGAGAFGYFEVTHDITKYSKAKVFEHIGKKTPIAVRFSTVAGESGSADTVRDPRGFAVKFYTEDGNWDLVGNNTPIFFIRDPILFPSFIHSQKRNPQTHLKDPDMVWDFWSLRPESLHQVSFLFSDRGIPDGHRHMNGYGSHTFKLVNANGEAVYCKFHYKTDQGIKNLSVEDAARLSQEDPDYGIRDLFNAIATGKYPSWTFYIQVMTFNQAETFPFNPFDLTKVWPHKDYPLIPVGKLVLNRNPVNYFAEVEQIAFDPSNMPPGIEASPDKMLQGRLFAYPDTHRHRLGPNYLHIPVNCPYRARVANYQRDGPMCMQDNQGGAPNYYPNSFGAPEQQPSALEHSIQYSGEVRRFNTANDDNVTQVRAFYVNVLNEEQRKRLCENIAGHLKDAQIFIQKKAVKNFTEVHPDYGSHIQALLDKYNAEKPKNAIHTFVQSGSHLAAREKANL
- iron-induced damages of the membrane components (in words) [1]: unable to prevent
- Iron-induced damages to: Aconitases [2]: -46 ± 2%
